Source: patent US20120125325A1, “THE USE OF AMLEXANOX IN THE THERAPY OF NEUTROPHIL-DRIVEN DISEASES” (priority 2009, published 2012)

Columns and labels:
[1] = system: LPS-induced neutrophilia in the airways of mice; assay: LPS-induced airway neutrophilia in mice, oral amlexanox (Example 1); assay type: in vivo; conditions: amlexanox 1-30 mg/kg p.o. 1 hour before LPS aerosol, BALF 8 hours after LPS
Experimental: • n=8 • Group 1—sham (control) • Group 2—Vehicle (10% DMSO, p.o.) • Group 3—amlexanox (1 mg/kg, p.o.) • Group 4—amlexanox (3 mg/kg, p.o.) • Group 5—amlexanox (10 mg/kg, p.o.) • Group 6—amlexanox (30 mg/kg, p.o.) • Group 7—dexamethasone (1 mg/ml) • p.o.=per orus (orally)
N.B. All test compounds were administered via oral gavage using a ball tipped stainless steel delivery cannulae or via intra-tracheal dosing (using a PennCentury devise). In all cases this was 1 hour before endotoxin exposure.
In all cases the cells were counted blind using oil immersion microscopy.
Amlexanox dosed via oral gavage was administered in a dose volume of 0.1 ml using a ball tipped stainless steel delivery cannule.

[2] = system: LPS-induced neutrophilia in the airways of mice; assay: LPS-induced airway neutrophilia in mice, inhaled (intra-tracheal) dosing (Example 2); conditions: for piloerection following LPS aerosol exposure: also seen in vehicle treated animals; for tolerance of dosing: mouse, in vivo
Experimental: • n=8 • Group 1—sham • Group 2—vehicle (10% DMSO) • Group 3—amlexanox (0.3 mg/mL) • Group 4—amlexanox (3 mg/mL) • Group 5—amlexanox (10 mg/mL) • Group 6—amlexanox (15 mg/mL) • Group 7—salbutamol (1 mg/mL) • Group 8—amlexanox (0.3 mg/mL)+salbutamol (1 mg/mL) • Group 9—amlexanox (3 mg/mL)+salbutamol (1 mg/mL) • Group 10—dexamethasone (1.0 mg/mL) • Group 11—fluticasone (1.0 mg/mL) • N.B. All test compounds to be administered by intra-tracheal dosing (using a PennCentury device) 1 hour before endotoxin exposure.
Non-fasted mice were weighed, individually identified on the tail with a permanent marker and administered by intra tracheal administration with doses of either vehicle, amlexanox, fluticasone, dexamethasone or salbutamol at time point T=−1 with respect to the start of LPS treatment (see above for group details). At T=0, mice were placed into an exposure chamber and exposed to LPS. The LPS was prepared in a solution of 0.5 mg/ml and aerosolised using a De Vibliss ultrasonic nebuliser 2000, so that 7 ml of the solution was aerosolised during the 30 min exposure period.
8 hours after LPS challenge the trachea was cannulated and BALF extracted. The procedure for this involved infusing and withdrawing 1 mL of PBS into the lungs via a tracheal catheter. This procedure was repeated to give a yield of approximately 2 mL lavage fluid. The BALF was aliquoted for analysis of neutrophilia and the remaining BALF stored at −80° C. for future cytokine analysis if required.
Total and differential white cell counts in the BAL fluid samples were measured using a Neubaur haemocytometer. Cytospin smears of the BAL fluid samples were prepared by centrifugation at 1200 rpm for 1 min at room temperature and stained using a DiffQuik stain system (Dade Behring).
Cells were counted blind using oil immersion microscopy.
Data were reported as total and differential number of cells per mL of BALF, mean±S.E.M. (standard error of the mean).
Inter-group deviations were statistically analysed by a one-way analysis of variance (ANOVA). In the case of significant difference in the mean values among the different levels of treatment, comparisons versus the vehicle group were carried out using the Dunnett's test. In case the equal variance test fails, a Kruskal-Wallis one-way analysis of variance on ranks followed by a Dunn's test were used. p<0.05 will be considered statistically significant.
Test compounds were administered in a dose volume of 20 μL using a FMJ-250 PennCentury device for intra-tracheal dosing.

leukotriene B4 = conditions: Taniguchi et al, 1990, and Kimishoto et al, 2006; cited from earlier work

| Compound | inhibition of LPS-induced neutrophilia (cells in bronchoalveolar lavage fluid, FIG. 1) [1] | effect as a bronchodilator (Bronchodilator effect) | piloerection following LPS aerosol exposure ([2]; mice) | inhibition of neutrophilia (total cells and neutrophils in bronchoalveolar lavage fluid, FIGS. 2 to 6) ([2]; mice, amlexanox 0.3-15 mg/mL, 20 μL intra-tracheal 1 hour before LPS aerosol, BALF 8 hours after LPS) | tolerance of dosing [2] | LTB4 production (leukotriene B4) |
| --- | --- | --- | --- | --- | --- | --- |
| CC(C)c1ccc2oc3nc(N)c(C(=O)O)cc3c(=O)c2c1 [amlexanox] | effective at inhibiting LPS-induced neutrophilia | little or no effect as a bronchodilator | noticeable degree of piloerection | inhibits neutrophilia | good tolerance of dosing | increase LTB4 production |
| C[C@@H]1C[C@H]2[C@@H]3CCC4=CC(=O)C=C[C@]4(C)[C@@]3(F)[C@@H](O)C[C@]2(C)[C@@]1(O)C(=O)CO [dexamethasone] |  |  | noticeable degree of piloerection |  | good tolerance of dosing |  |
| C[C@@H]1C[C@H]2[C@@H]3C[C@H](F)C4=CC(=O)C=C[C@]4(C)[C@@]3(F)[C@@H](O)C[C@]2(C)[C@@]1(O)C(=O)SCF [fluticasone] |  |  | noticeable degree of piloerection |  | good tolerance of dosing |  |
| CC(C)(C)NCC(O)c1ccc(O)c(CO)c1 (stereo not drawn) [salbutamol] |  |  | noticeable degree of piloerection |  | good tolerance of dosing |  |
